# Laboratory results reported in patent US10308959B2, “Methods, systems, and compositions relating to MiRNA-146a” (Henry Ford Health System, priority 2013, dated 2019).
# Assays:
# Type in all cases: cell-based
# [1] = test system: primary rat embryonic OPCs; assay: QrtPCR of mRNA (MBP, p38MAPK) in primary rat embryonic OPCs; settings: for expression of MBP, mRNA and protein levels: in the presence of polymyxin B (50 μg/ml), 50 and 100 ng/ml, 4 days
# Method: (§1) Primary rat embryonic OPCs were isolated and prepared according to the method known to the skilled artisan. Briefly, on embryonic day 17, rat embryos were removed from a pregnant Wistar rat in a laminar flow hood. The cortices were dissected out by using microdissecting scissors, rinsed twice in Hank's buffered salt solution and dissociated after digesting with 0.01% trypsin and DNase at 37° C. for 15 min. The digested cells were washed twice, filtered through a 70 mm nylon cell strainer and plated with DMEM containing 20% fetal bovine serum (FBS) in poly-D-lysine coated T75 cell culture flasks (approximately 10 million cells per flask). The cells grew to confluence for 10 days and then were placed on the shaker at 200 r.p.m. at 37° C. for 1 h to remove microglial cells. Subsequently, the cells were left on the shaker for an additional 18-20 h to collect OPCs. The collected OPCs were plated in untreated Petri dishes for 1 h to remove contaminated microglia and astrocytes which attach to the Petri dish more efficiently than OPCs. The unattached OPCs were transferred onto poly-D,L-ornithine-coated Petri dishes at a cell density of 10^4 per/cm2 with a basal chemically defined medium (“BDM”) containing 10 ng/ml platelet-derived growth factor-alpha (“PDGF-AA”) and 10 ng/ml basic fibroblast growth factor (“bFGF”) for 7-10 days.
# (§2) The mouse primary cultures of OPCs were conditionally immortalized by transformation with a temperature-sensitive large T-antigen into a mouse OPC cell line-N20.1 (21). N20.1 cells were provided by Dr. Anthony Campagnoni (University of California at Los Angeles). N20.1 cells were grown and maintained in Dulbecco's modified Eagle's medium (“DMEM”)/F12 with 1% fetal bovine serum (“FBS”) and G418 (100 μg/ml) at 37° C. For N20.1 cells, transient transfections were performed with Nucleofector kit according to the manufacturer's protocol (Amaxa, Germany). The cells (10^6) were mixed with 1 μg plasmid DNA or 100 pmol of siRNA/oligo nucleotides and pulsed according to the manufacturer's instruction. […]
# [2] = test system: mouse OPC cell line-N20.1; assay: QrtPCR of mRNA (MBP, p38MAPK) in N20.1 cells; settings: for expression of MBP, mRNA and protein levels: in the presence of polymyxin B (50 μg/ml), 50 and 100 ng/ml, 4 days
# Method: The mouse primary cultures of OPCs were conditionally immortalized by transformation with a temperature-sensitive large T-antigen into a mouse OPC cell line-N20.1 (21). N20.1 cells were provided by Dr. Anthony Campagnoni (University of California at Los Angeles). N20.1 cells were grown and maintained in Dulbecco's modified Eagle's medium (“DMEM”)/F12 with 1% fetal bovine serum (“FBS”) and G418 (100 μg/ml) at 37° C. For N20.1 cells, transient transfections were performed with Nucleofector kit according to the manufacturer's protocol (Amaxa, Germany). The cells (10^6) were mixed with 1 μg plasmid DNA or 100 pmol of siRNA/oligo nucleotides and pulsed according to the manufacturer's instruction. The transfected cells were immediately plated into Petri dishes with DMEM containing 1% FBS and incubated at 37° C. for days. Primary rat embryonic OPCs were transiently transfected with Lipofectamine (Invitrogen) overnight, according to the manufacturer's protocol (see Chew et al., J. Neuroscience 30(33): 11011-11027 (2010)). Amounts of DNA and siRNA/oligo nucleotides were used as recommended by the manufacturer. The control plasmid (pcDNA3) was used as a mock transfected control for miR-146a expression vector transfection, and control siRNA (Ambion, a random mixture of oligonucleotides) was used as a mock transfected control for both transfections with Tβ4siRNA and anti-miR-146a inhibitor nucleotides. The cells (10^4 cells/cm^2) were treated with 0, 25, 50, 100 ng/ml of Tβ4 (RegeneRx Biopharmaceuticals Inc., Rockville, Md.). The cells were incubated at 37° C. and fed every 2 days with fresh medium (DMEM containing 1% FBS for N20.1 cells and BDM for primary rat embryonic OPCs) with and without Tβ4 for 4 days. […]
# After qrtPCR, agarose gel electrophoresis was performed to verify the quality of the qrtPCR products. No secondary products were detected. […] Values obtained from three independent experiments were analyzed relative to gene expression data using the 2^−ΔΔCT method.
# [3] = test system: primary rat embryonic OPCs; assay: MBP immunofluorescence cell counting in primary rat embryonic OPCs; settings: Tβ4 100 ng/ml where used; DAPI positive cells as total
# Method: (§3) Primary rat embryonic OPCs were isolated and prepared according to the method known to the skilled artisan. Briefly, on embryonic day 17, rat embryos were removed from a pregnant Wistar rat in a laminar flow hood. The cortices were dissected out by using microdissecting scissors, rinsed twice in Hank's buffered salt solution and dissociated after digesting with 0.01% trypsin and DNase at 37° C. for 15 min. The digested cells were washed twice, filtered through a 70 mm nylon cell strainer and plated with DMEM containing 20% fetal bovine serum (FBS) in poly-D-lysine coated T75 cell culture flasks (approximately 10 million cells per flask). The cells grew to confluence for 10 days and then were placed on the shaker at 200 r.p.m. at 37° C. for 1 h to remove microglial cells. Subsequently, the cells were left on the shaker for an additional 18-20 h to collect OPCs. The collected OPCs were plated in untreated Petri dishes for 1 h to remove contaminated microglia and astrocytes which attach to the Petri dish more efficiently than OPCs. The unattached OPCs were transferred onto poly-D,L-ornithine-coated Petri dishes at a cell density of 10^4 per/cm2 with a basal chemically defined medium (“BDM”) containing 10 ng/ml platelet-derived growth factor-alpha (“PDGF-AA”) and 10 ng/ml basic fibroblast growth factor (“bFGF”) for 7-10 days. […]
# [4] = test system: mouse OPC cell line-N20.1; assay: miR-146a quantification by qrtPCR in N20.1 cells
# Method: The mouse primary cultures of OPCs were conditionally immortalized by transformation with a temperature-sensitive large T-antigen into a mouse OPC cell line-N20.1 (21). N20.1 cells were provided by Dr. Anthony Campagnoni (University of California at Los Angeles). N20.1 cells were grown and maintained in Dulbecco's modified Eagle's medium (“DMEM”)/F12 with 1% fetal bovine serum (“FBS”) and G418 (100 μg/ml) at 37° C. For N20.1 cells, transient transfections were performed with Nucleofector kit according to the manufacturer's protocol (Amaxa, Germany). The cells (10^6) were mixed with 1 μg plasmid DNA or 100 pmol of siRNA/oligo nucleotides and pulsed according to the manufacturer's instruction. The transfected cells were immediately plated into Petri dishes with DMEM containing 1% FBS and incubated at 37° C. for days. Primary rat embryonic OPCs were transiently transfected with Lipofectamine (Invitrogen) overnight, according to the manufacturer's protocol (see Chew et al., J. Neuroscience 30(33): 11011-11027 (2010)). […]
# The cDNA for each miR and TaqMan assay were performed in triplicate according to the manufacturer's protocol specified in Applied Biosystems ViiA™ 7 Real-Time PCR System (Applied Biosystem). […] Values obtained from three independent experiments were analyzed relative to gene expression data using the 2^−ΔΔCT method.
# mouse N20.1 cells = assay: MBP immunofluorescence cell counting in N20.1 cells; settings: Tβ4 100 ng/ml where used; DAPI positive cells as total
# Method: as §2
# Immunofluorescence staining was performed in N20.1 and primary rat embryonic OPC cells. These cells were fixed with 4% paraformaldehyde for 1 h, washed with PBS, blocked with 1% serum for 1 h and incubated with monoclonal antibodies of OPC marker—O4, (1:1000, Chemicon, Billerica, Mass., USA) and a polyclonal antibody against mature OL marker—MBP (1:200; Dako, Carpinteria, Calif.) at room temperature for one hour, rinsed with PBS and secondary antibodies labeled with cyanine fluorophore (Cy3—red fluorescence) for 1 h. The slides were counterstained with 4′,6-diamidino-2-phenylindole (DAPI—blue fluorescence) and examined under Fluorescent Illumination Microscope (Olympus IX71/IX51, Tokyo, Japan). […]
# [5] = test system: primary rat embryonic OPCs; assay: miR-146a quantification by qrtPCR in primary rat embryonic OPCs
# Method: as §3
# [6] = test system: mouse OPC cell line-N20.1; assay: Western blot of MBP, TLR signaling mediators and MAPKs in N20.1 cells
# Method: The mouse primary cultures of OPCs were conditionally immortalized by transformation with a temperature-sensitive large T-antigen into a mouse OPC cell line-N20.1 (21). N20.1 cells were provided by Dr. Anthony Campagnoni (University of California at Los Angeles). N20.1 cells were grown and maintained in Dulbecco's modified Eagle's medium (“DMEM”)/F12 with 1% fetal bovine serum (“FBS”) and G418 (100 μg/ml) at 37° C. For N20.1 cells, transient transfections were performed with Nucleofector kit according to the manufacturer's protocol (Amaxa, Germany). The cells (10^6) were mixed with 1 μg plasmid DNA or 100 pmol of siRNA/oligo nucleotides and pulsed according to the manufacturer's instruction. The transfected cells were immediately plated into Petri dishes with DMEM containing 1% FBS and incubated at 37° C. for days. Primary rat embryonic OPCs were transiently transfected with Lipofectamine (Invitrogen) overnight, according to the manufacturer's protocol (see Chew et al., J. Neuroscience 30(33): 11011-11027 (2010)). Amounts of DNA and siRNA/oligo nucleotides were used as recommended by the manufacturer. The control plasmid (pcDNA3) was used as a mock transfected control for miR-146a expression vector transfection, and control siRNA (Ambion, a random mixture of oligonucleotides) was used as a mock transfected control for both transfections with Tβ4siRNA and anti-miR-146a inhibitor nucleotides. The cells (10^4 cells/cm^2) were treated with 0, 25, 50, 100 ng/ml of Tβ4 (RegeneRx Biopharmaceuticals Inc., Rockville, Md.). The cells were incubated at 37° C. and fed every 2 days with fresh medium (DMEM containing 1% FBS for N20.1 cells and BDM for primary rat embryonic OPCs) with and without Tβ4 for 4 days. To test for LPS contamination in Tβ4, the cells were cultured in the presence of the LPS inhibitor polymyxin B (50 μg/ml) followed by treatment with Tβ4. Tβ4 (100 ng/ml) was boiled for 10 minutes in order to denature Tβ4 protein and was used as a negative control. Transfected cells (2×10^4 cells/cm2) including mock transfected controls were treated with and without 100 ng/ml of Tβ4 (RegeneRx Biopharmaceuticals Inc., Rockville, Md.) for 4 days and fresh medium was provided at day 2 with/without Tβ4.
# Total protein extracts from the cells were prepared, as known to the skilled artisan. The protein extracts were separated by sodium dodecyl sulfate-polyacrylamide gel electrophoresis for Western blot analysis. For Western blot analysis, rabbit antiserum for MBP (1:200; Dako, Carpinteria, Calif.), monoclonal antibodies (1:1000) for p38MAPK, phosphorylated p38MAPK, c-JUN, phosphorylated c-JUN (1:1000; Upstate, Charlottesville, Va., USA), rabbit polyclonal antibodies (1:1000) for JNK1 and phosphorylated JNK1 (Promega Corporation), goat polyclonal TLR2, rabbit polyclonal TLR4, mouse monoclonal IRAK1 antibodies (1:1000), rabbit polyclonal TRAF6 antibodies (1:1000) mouse monoclonal β-actin antibodies (1:5000; Santa Cruz Biotechnology) and mouse monoclonal α-tubulin antibodies (1:5000; Sigma) were used. Donkey anti-goat, anti-rabbit, and anti-mouse horseradish peroxidase (1:5000; Jackson ImmunoResearch Labs, West Grove, Pa., USA) were used as secondary antibodies. Each experiment was repeated at least three times. The protein bands were quantified based on histogram analysis relative to gel loading marker α-tubulin.
# [7] = test system: primary rat embryonic OPCs; assay: Western blot of MBP, TLR signaling mediators and MAPKs in primary rat embryonic OPCs
# Method: as §1
# The mouse primary cultures of OPCs were conditionally immortalized by transformation with a temperature-sensitive large T-antigen into a mouse OPC cell line-N20.1 (21). N20.1 cells were provided by Dr. Anthony Campagnoni (University of California at Los Angeles). N20.1 cells were grown and maintained in Dulbecco's modified Eagle's medium (“DMEM”)/F12 with 1% fetal bovine serum (“FBS”) and G418 (100 μg/ml) at 37° C. For N20.1 cells, transient transfections were performed with Nucleofector kit according to the manufacturer's protocol (Amaxa, Germany). The cells (10^6) were mixed with 1 μg plasmid DNA or 100 pmol of siRNA/oligo nucleotides and pulsed according to the manufacturer's instruction. The transfected cells were immediately plated into Petri dishes with DMEM containing 1% FBS and incubated at 37° C. for days. Primary rat embryonic OPCs were transiently transfected with Lipofectamine (Invitrogen) overnight, according to the manufacturer's protocol (see Chew et al., J. Neuroscience 30(33): 11011-11027 (2010)). Amounts of DNA and siRNA/oligo nucleotides were used as recommended by the manufacturer. The control plasmid (pcDNA3) was used as a mock transfected control for miR-146a expression vector transfection, and control siRNA (Ambion, a random mixture of oligonucleotides) was used as a mock transfected control for both transfections with Tβ4siRNA and anti-miR-146a inhibitor nucleotides. The cells (10^4 cells/cm^2) were treated with 0, 25, 50, 100 ng/ml of Tβ4 (RegeneRx Biopharmaceuticals Inc., Rockville, Md.). The cells were incubated at 37° C. and fed every 2 days with fresh medium (DMEM containing 1% FBS for N20.1 cells and BDM for primary rat embryonic OPCs) with and without Tβ4 for 4 days. To test for LPS contamination in Tβ4, the cells were cultured in the presence of the LPS inhibitor polymyxin B (50 μg/ml) followed by treatment with Tβ4. Tβ4 (100 ng/ml) was boiled for 10 minutes in order to denature Tβ4 protein and was used as a negative control. […]
# [8] = second miR named, sentence 'In contrast'
Substance,"expression of MBP, mRNA and protein levels [1]","expression of MBP, mRNA and protein levels [2]",increase in mRNA MBP expression ([1]; Tβ4 100 ng/ml where used),number of MBP positive OPCs [3],"expression of miR-146a ([4]; Tβ4 0 to 100 ng/ml, 4 days)","miR-146a expression (data not shown) [4, 8]",number of MBP positive OPCs (mouse N20.1 cells),increase in mRNA MBP expression ([2]; Tβ4 100 ng/ml where used),"expression of miR-146a ([5]; Tβ4 0 to 100 ng/ml, 4 days)","miR-146a expression (data not shown) [5, 8]",expression and phosphorylation of p38MAPK [6],expression level of MBP (protein) [6],expression levels of IRAK1 and TRAF6 [6],expression of TLR2 and TLR4 [6],"phosphorylation of ERK1/2, JNK1 and c-Jun [6]",expression and phosphorylation of p38MAPK [7],expression level of MBP (protein) [7],expression levels of IRAK1 and TRAF6 [7],expression of TLR2 and TLR4 [7],"phosphorylation of ERK1/2, JNK1 and c-Jun [7]"
"boiled denatured Tβ4: Tβ4 (100 ng/ml) boiled for 10 minutes to denature the protein, used as a negative control (SDKPDMAEIEKFDKSKLKKTETQEKNPLPSKETIEQEKQAGES; heat-denatured; UniProt P62328 2-44, looked up) [reference compound]",no effect,no effect,–,–,–,–,–,–,–,–,–,–,–,–,–,–,–,–,–,–
thymosin beta 4 (SDKPDMAEIEKFDKSKLKKTETQEKNPLPSKETIEQEKQAGES; listed as Homo sapiens) [Tβ4],induced,induced,two-fold increase,significantly increased,increased in a dose dependent manner,no effect,significantly increased,two-fold increase,increased in a dose dependent manner,no effect,induced,increased,markedly reduced,no effect,dose-dependently inhibited,induced,increased,markedly reduced,no effect,dose-dependently inhibited
